From patent US10864197B2, “Biphenyl sulfonamide compounds for the treatment of kidney diseases or disorders” (Retrophin, Inc., priority 2016, dated 2020)

How the values were obtained:
Format in all cases: in vivo, human
[1] = DUET trial: eGFR and serum markers; details: double-blind period
Source text: DUET trial is a phase 2, double-blind, randomized, active-control, dose-escalation study (NCT01613118) that evaluates the efficacy and safety of sparsentan as a treatment for primary focal segmental glomerulosclerosis (FSGS), a rare disorder characterized by massive proteinuria and progressive loss of kidney function. Patients (ranging in age from 8 years to 75 years) with biopsy-proven primary FSGS (or documentation of a genetic mutation in a podocyte protein associated with the disease) having baseline urine protein to creatinine (“UP/C”) ratios greater than 1 g/g and estimated glomerular filtration rates greater than 30 ml/min were eligible for the study. The inclusion criteria also included a mean seated blood pressure >[…] and <145/96 mmHg for patients aged 18 years or older, or, for patients aged <18 years of age, a mean seated blood pressure of >90/60 mmHg and <95th percentile for age, gender, and height. The inclusion criteria included an allowance for a stable dose of immunosuppressive medication for ≥1 month. Exclusion criteria included secondary FSGS; significant medical conditions related to cardiac, hepatic, or immune function; body mass index >[…] for adults or in the 99th percentile plus 5 for pediatric patients; hematocrit <27% or hemoglobin <[…]; serum potassium >5.5 mEq/L; and women who were pregnant, breastfeeding, or of child-bearing potential who were unwilling to use two methods of contraception.
(§1) Patients who signed consent and met all inclusion and exclusion criteria during the screening phase underwent a 2-week angiotensin receptor blocker (ARB) and angiotensin converting enzyme (ACE) inhibitor washout period before being randomly assigned to one of the three escalating dose cohorts receiving sparsentan (200 mg/day; 400 mg/day; and 800 mg/day) or a fixed maximal dose of active control (the ARB irbesartan, at 300 mg/day) in a 3:1 ratio within each cohort. The primary endpoint was the change in UP/C ratio (determined as a measure of urinary protein excretion) from baseline. The proportion of patients achieving UP/C ratio ≤1.5 g/g with >40% reduction in UP/C ratio at Week 8, a modified responder analysis, was evaluated as secondary endpoint.

[2] = DUET trial: systolic and diastolic blood pressure; details: double-blind period; irbesartan n=32, sparsentan n=64
Source text: DUET trial is a phase 2, double-blind, randomized, active-control, dose-escalation study (NCT01613118) that evaluates the efficacy and safety of sparsentan as a treatment for primary focal segmental glomerulosclerosis (FSGS), a rare disorder characterized by massive proteinuria and progressive loss of kidney function. Patients (ranging in age from 8 years to 75 years) with biopsy-proven primary FSGS (or documentation of a genetic mutation in a podocyte protein associated with the disease) having baseline urine protein to creatinine (“UP/C”) ratios greater than 1 g/g and estimated glomerular filtration rates greater than 30 ml/min were eligible for the study. […]
as §1, with “The proportion of patients achieving UP/C ratio ≤1.5 g/g with >40% reduction in UP/C ratio at Week 8, a modified responder analysis, was evaluated as secondary endpoint.” left out

[3] = test system: patients with primary focal segmental glomerulosclerosis (FSGS); experiment: DUET phase 2 trial: change in urine protein to creatinine (UP/C) ratio, proteinuria; details: for Complete remission (UP/C ratio <0.3 g/g), number of patients: 8-week double-blind period; for Reduction from Baseline in UP/C ratio (geometric least squares mean reduction) / Reduction from Baseline in UP/C ratio, intent-to-treat analysis: baseline to week 8; for Reduction from Baseline in UP/C ratio, intent-to-treat analysis: missing data imputed as zero change; for Proportion of patients who achieved UP/C ratio ≤1.5 g/g with >40% reduction: week 8; for percentage of patients achieving UP/C ratio ≤1.5 g/g with >40% reduction during open-label period: 8 weeks to 48 weeks
Source text: DUET trial is a phase 2, double-blind, randomized, active-control, dose-escalation study (NCT01613118) that evaluates the efficacy and safety of sparsentan as a treatment for primary focal segmental glomerulosclerosis (FSGS), a rare disorder characterized by massive proteinuria and progressive loss of kidney function. Patients (ranging in age from 8 years to 75 years) with biopsy-proven primary FSGS (or documentation of a genetic mutation in a podocyte protein associated with the disease) having baseline urine protein to creatinine (“UP/C”) ratios greater than […] and estimated glomerular filtration rates greater than 30 ml/min were eligible for the study. The inclusion criteria also included a mean seated blood pressure >[…] and <145/96 mmHg for patients aged 18 years or older, or, for patients aged <18 years of age, a mean seated blood pressure of >90/60 mmHg and <95th percentile for age, gender, and height. The inclusion criteria included an allowance for a stable dose of immunosuppressive medication for ≥1 month. […] Patients who signed consent and met all inclusion and exclusion criteria during the screening phase underwent a 2-week angiotensin receptor blocker (ARB) and angiotensin converting enzyme (ACE) inhibitor washout period before being randomly assigned to one of the three escalating dose cohorts receiving sparsentan (200 mg/day; 400 mg/day; and 800 mg/day) or a fixed maximal dose of active control (the ARB irbesartan, at 300 mg/day) in a 3:1 ratio within each cohort. The primary endpoint was the change in UP/C ratio (determined as a measure of urinary protein excretion) from baseline. […] After the completion of an 8-week double-blind period, the patients continued sparsentan treatment on their assigned doses in an open-label extension for 136 additional weeks. Irbesartan control arm patients were offered sparsentan treatment at the dose they would have received according to the double-blind dose group in which they were enrolled. The analysis of the primary endpoint included 96 randomized patients who received at least one dose of the study drug, and had both baseline and week 8 UP/C ratio values (i.e., had completed 8 weeks of double-blind treatment). The pre-specified analysis order was (1) all sparsentan doses vs. irbesartan; (2) sparsentan 800- and 400-mg doses vs. irbesartan; (3) sparsentan 400-mg dose vs. irbesartan; (4) sparsentan 800-mg dose vs. irbesartan. Baseline or week 8 UP/C ratio data were missing for 9 sparsentan-treated patients and 4 irbesartan-treated patients. An intent-to-treat analysis was conducted, in which the missing data were imputed as zero change in UP/C ratio. […] The results across sparsentan dose cohorts were similar to those observed without imputed data (Table 4).

[4] = Baseline, sparsentan 200-800 mg/day (n=64), irbesartan 300 mg/day (n=32)
[5] = Baseline, sparsentan 400-800 mg/day (n=51), irbesartan 300 mg/day (n=25)
[6] = Week 8, sparsentan 200-800 mg/day (n=64), irbesartan 300 mg/day (n=32)
[7] = Week 8, sparsentan 400-800 mg/day (n=51), irbesartan 300 mg/day (n=25)
[8] = dose cohort 200 mg sparsentan, irbesartan 300 mg/day
[9] = dose cohort 400 mg and 800 mg sparsentan, irbesartan 300 mg/day
[10] = dose cohort 400 mg sparsentan, irbesartan 300 mg/day
[11] = dose cohort 800 mg sparsentan, irbesartan 300 mg/day
[12] = dose cohort All (sparsentan 200-800 mg/day; irbesartan 300 mg/day)
[13] = sparsentan 200-800 mg/day (n=64), irbesartan 300 mg/day (n=32)
[14] = sparsentan 400-800 mg/day (n=51), irbesartan 300 mg/day (n=25)

**Q.** Which results are given for `CCCCC1=NC2(CCCC2)C(=O)N1Cc1ccc(-c2ccccc2-c2nnn[nH]2)cc1` [Irbesartan, irbesartan, reference compound]?
**A.** change in N-terminal pro-B-type natriuretic peptide [1]: no significant change or difference; change in albumin [1]: no significant change or difference; change in eGFR [1]: no significant change or difference; change in serum potassium [1]: no significant change or difference; mean systolic and diastolic blood pressures relative to baseline [2]: reductions; Complete remission (UP/C ratio <0.3 g/g), number of patients [3]: in no irbesartan-treated patients; UP/C ratio, maximum [3, 4]: 10.73 g/g; UP/C ratio, mean (SD) [3, 4]: 4.017 (2.6717) g/g; UP/C ratio, median [3, 4]: 3.265 g/g; UP/C ratio, minimum [3, 4]: 0.88 g/g; UP/C ratio, maximum [3, 5]: 10.73 g/g; UP/C ratio, mean (SD) [3, 5]: 3.816 (2.7160) g/g; UP/C ratio, median [3, 5]: 2.970 g/g; UP/C ratio, minimum [3, 5]: 0.88 g/g; UP/C ratio, maximum [3, 6]: 10.19 g/g; UP/C ratio, mean (SD) [3, 6]: 3.164 (2.2713) g/g; UP/C ratio, median [3, 6]: 2.405 g/g; UP/C ratio, minimum [3, 6]: 0.43 g/g; UP/C ratio, maximum [3, 7]: 10.19 g/g; UP/C ratio, mean (SD) [3, 7]: 2.990 (2.3598) g/g; UP/C ratio, median [3, 7]: 2.390 g/g; UP/C ratio, minimum [3, 7]: 0.43 g/g; Reduction from Baseline in UP/C ratio (geometric least squares mean reduction) [3, 8]: 15.0%; Reduction from Baseline in UP/C ratio (geometric least squares mean reduction) [3, 9]: 19.0%; Reduction from Baseline in UP/C ratio (geometric least squares mean reduction) ([3]; dose cohort 400 mg and 800 mg sparsentan, irbesartan 300 mg/day, listed as irbesartan): 19%; Reduction from Baseline in UP/C ratio (geometric least squares mean reduction) [3, 10]: 28.1%; Reduction from Baseline in UP/C ratio (geometric least squares mean reduction) [3, 11]: 9.3%; Reduction from Baseline in UP/C ratio (geometric least squares mean reduction) [3, 12]: 18.5%; Reduction from Baseline in UP/C ratio (geometric least squares mean reduction) ([3]; dose cohort All (sparsentan 200-800 mg/day; irbesartan 300 mg/day), listed as irbesartan): 19%; Reduction from Baseline in UP/C ratio, intent-to-treat analysis ([3]; dose cohort 200 mg): 13.2%; Reduction from Baseline in UP/C ratio, intent-to-treat analysis ([3]; dose cohort 400 mg): 23.6%; Reduction from Baseline in UP/C ratio, intent-to-treat analysis ([3]; dose cohort 400 mg and 800 mg): 15.9%; Reduction from Baseline in UP/C ratio, intent-to-treat analysis ([3]; dose cohort 800 mg): 9.7%; Reduction from Baseline in UP/C ratio, intent-to-treat analysis ([3]; dose cohort All): 15.7%; % Change from Baseline to Week 8 in UP/C ratio, geometric LSmeans [3, 13]: −18.5%; % Change from Baseline to Week 8 in UP/C ratio, geometric LSmeans [3, 14]: −19.0%; Proportion of patients who achieved UP/C ratio ≤1.5 g/g with >40% reduction ([3]; dose cohort 200 mg): 0.0%; Proportion of patients who achieved UP/C ratio ≤1.5 g/g with >40% reduction ([3]; dose cohort 400 mg): 17.7%; Proportion of patients who achieved UP/C ratio ≤1.5 g/g with >40% reduction ([3]; dose cohort 400 mg and 800 mg): 12.0%; Proportion of patients who achieved UP/C ratio ≤1.5 g/g with >40% reduction ([3]; dose cohort 800 mg): 0.0%; Proportion of patients who achieved UP/C ratio ≤1.5 g/g with >40% reduction ([3]; dose cohort All): 9.4%; Proportion of patients who achieved UP/C ratio ≤1.5 g/g with >40% reduction ([3]; dose cohort All, listed as irbesartan): 9%

**Q.** Which results are given for `CCCCC1=NC2(CCCC2)C(=O)N1Cc1ccc(-c2ccccc2S(=O)(=O)Nc2noc(C)c2C)c(COCC)c1` [Sparsentan, 4′-((2-butyl-4-oxo-1,3-diazaspiro[4.4]non-1-en-3-yl)methyl)-N-(4,5-dimethylisoxazol-3-yl)-2′-(ethoxymethyl)-[1,1′-biphenyl]-2-sulfonamide]?
**A.** change in N-terminal pro-B-type natriuretic peptide [1]: no significant change or difference; change in albumin [1]: no significant change or difference; change in eGFR [1]: no significant change or difference; change in serum potassium [1]: no significant change or difference; mean systolic and diastolic blood pressures relative to baseline [2]: reduction was statistically significant; Complete remission (UP/C ratio <0.3 g/g), number of patients [3]: 4 patients; percentage of patients achieving UP/C ratio ≤1.5 g/g with >40% reduction during open-label period ([3]; patients continuing to receive sparsentan): increased; percentage of patients achieving UP/C ratio ≤1.5 g/g with >40% reduction during open-label period ([3]; patients switched from irbesartan to sparsentan): increased; UP/C ratio, maximum [3, 4]: 18.66 g/g; UP/C ratio, mean (SD) [3, 4]: 4.707 (3.7810) g/g; UP/C ratio, median [3, 4]: 3.620 g/g; UP/C ratio, minimum [3, 4]: 0.43 g/g; UP/C ratio, maximum [3, 5]: 18.66 g/g; UP/C ratio, mean (SD) [3, 5]: 4.824 (4.0506) g/g; UP/C ratio, median [3, 5]: 3.530 g/g; UP/C ratio, minimum [3, 5]: 0.43 g/g; UP/C ratio, maximum [3, 6]: 14.47 g/g; UP/C ratio, mean (SD) [3, 6]: 3.300 (3.5719) g/g; UP/C ratio, median [3, 6]: 1.980 g/g; UP/C ratio, minimum [3, 6]: 0.12 g/g; UP/C ratio, maximum [3, 7]: 14.47 g/g; UP/C ratio, mean (SD) [3, 7]: 3.208 (3.4738) g/g; UP/C ratio, median [3, 7]: 1.900 g/g; UP/C ratio, minimum [3, 7]: 0.12 g/g; Reduction from Baseline in UP/C ratio (geometric least squares mean reduction) [3, 8]: 33.1%; Reduction from Baseline in UP/C ratio (geometric least squares mean reduction) [3, 9]: 47.4%; Reduction from Baseline in UP/C ratio (geometric least squares mean reduction) ([3]; dose cohort 400 mg and 800 mg sparsentan, irbesartan 300 mg/day, listed as sparsentan): 47%; Reduction from Baseline in UP/C ratio (geometric least squares mean reduction) [3, 10]: 52.7%; Reduction from Baseline in UP/C ratio (geometric least squares mean reduction) [3, 11]: 41.3%; Reduction from Baseline in UP/C ratio (geometric least squares mean reduction) [3, 12]: 44.8%; Reduction from Baseline in UP/C ratio (geometric least squares mean reduction) ([3]; dose cohort All (sparsentan 200-800 mg/day; irbesartan 300 mg/day), listed as sparsentan): 45%; Reduction from Baseline in UP/C ratio, intent-to-treat analysis ([3]; dose cohort 200 mg): 33.1%; Reduction from Baseline in UP/C ratio, intent-to-treat analysis ([3]; dose cohort 400 mg): 50.5%; Reduction from Baseline in UP/C ratio, intent-to-treat analysis ([3]; dose cohort 400 mg and 800 mg): 44.8%; Reduction from Baseline in UP/C ratio, intent-to-treat analysis ([3]; dose cohort 800 mg): 38.4%; Reduction from Baseline in UP/C ratio, intent-to-treat analysis ([3]; dose cohort All): 42.7%; % Change from Baseline to Week 8 in UP/C ratio, geometric LSmeans [3, 13]: −44.8%; % Change from Baseline to Week 8 in UP/C ratio, geometric LSmeans [3, 14]: −47.4%; Proportion of patients who achieved UP/C ratio ≤1.5 g/g with >40% reduction ([3]; dose cohort 200 mg): 15.4%; Proportion of patients who achieved UP/C ratio ≤1.5 g/g with >40% reduction ([3]; dose cohort 400 mg): 38.1%; Proportion of patients who achieved UP/C ratio ≤1.5 g/g with >40% reduction ([3]; dose cohort 400 mg and 800 mg): 31.4%; Proportion of patients who achieved UP/C ratio ≤1.5 g/g with >40% reduction ([3]; dose cohort 800 mg): 26.7%; Proportion of patients who achieved UP/C ratio ≤1.5 g/g with >40% reduction ([3]; dose cohort All): 28.1%; Proportion of patients who achieved UP/C ratio ≤1.5 g/g with >40% reduction ([3]; dose cohort All, listed as sparsentan): 28%
